Measured values reported in US20060210500A1, “Formulations” (MERCK PATENT GMBH, priority 2003, published 2006).

Experiments:
[1] = over the entire pH range; cited from earlier work
[2] = test system: Aspergillus niger ATCC 16404; assay: challenge test, germ count by Agar plates method; type: cell-based; settings: 8% aqueous suspension
Experimental: (§1) A standard procedure to measure the anti-microbial activity of substances was used (challenge tests). A suspension of test organisms (10^5 to 10^6 germs/ml) is inoculated into a recipient containing already the substance to be tested. Samples of the inoculated suspension are taken and the number of germs is measured thanks to the Agar plates method. Germ counts is performed at t=0, t=24 h after the inoculation, t=48 h after the inoculation, t=7 days after the inoculation, t=14 days after the inoculation.
(§2) Sterile water containing 8% w/w of treated and untreated carriers were each investigated.

[3] = test system: Candida albicans ATCC 10231; assay: challenge test, germ count by Agar plates method; type: cell-based; settings: 8% aqueous suspension
Experimental: as §1, §2

Escheria coli ATCC8739 = assay: challenge test, germ count by Agar plates method; type: cell-based; settings: 8% aqueous suspension
Experimental: as §1, §2

[4] = test system: Pseudomonas aeruginosa ATCC 9027; assay: challenge test, germ count by Agar plates method; type: cell-based; settings: 8% aqueous suspension
Experimental: as §1, §2

[5] = test system: Staphylococcus aureus ATCC 6538; assay: challenge test, germ count by Agar plates method; type: cell-based; settings: 8% aqueous suspension
Experimental: as §1, §2

O=c1c(O)c(-c2ccc(O)c(O)c2)oc2cc(O)cc(O)c12 [Quercetin, 3,3′,4′,5,7-pentahydroxyflavone]
antioxidant action [1]: the greatest activity amongst the structures investigated

silver oxide [0.02% Ag2O]
Germs Number/ml after 24 h ([2]; 24 h after inoculation): 3.5 · 10^5 germs/ml | Germs Number/ml after 48 h ([2]; 48 h after inoculation): 1.6 · 10^5 germs/ml | Germs Number/ml after 7 d ([2]; 7 d after inoculation): 1.0 · 10^5 germs/ml | Germs Number/ml after 14 d ([2]; 14 d after inoculation): 2.2 · 10^4 germs/ml | Germs Number/ml after Start ([2]; t=0): 4.5 · 10^5 germs/ml | Germs Number/ml after 24 h ([3]; 24 h after inoculation): 8.3 · 10^2 germs/ml | Germs Number/ml after 48 h ([3]; 48 h after inoculation): 0 germs/ml | Germs Number/ml after 7 d ([3]; 7 d after inoculation): 0 germs/ml | Germs Number/ml after 14 d ([3]; 14 d after inoculation): 0 germs/ml | Germs Number/ml after Start ([3]; t=0): 9.0 · 10^2 germs/ml | Germs Number/ml after 24 h (Escheria coli ATCC8739; 24 h after inoculation): 0 germs/ml | Germs Number/ml after 48 h (Escheria coli ATCC8739; 48 h after inoculation): 0 germs/ml | Germs Number/ml after 7 d (Escheria coli ATCC8739; 7 d after inoculation): 0 germs/ml | Germs Number/ml after 14 d (Escheria coli ATCC8739; 14 d after inoculation): 0 germs/ml | Germs Number/ml after Start (Escheria coli ATCC8739; t=0): 2.0 · 10^6 germs/ml | Germs Number/ml after 24 h ([4]; 24 h after inoculation): 0 germs/ml | Germs Number/ml after 48 h ([4]; 48 h after inoculation): 0 germs/ml | Germs Number/ml after 7 d ([4]; 7 d after inoculation): 0 germs/ml | Germs Number/ml after 14 d ([4]; 14 d after inoculation): 0 germs/ml | Germs Number/ml after Start ([4]; t=0): 2.2 · 10^5 germs/ml | Germs Number/ml after 24 h ([5]; 24 h after inoculation): 0 germs/ml | Germs Number/ml after 48 h ([5]; 48 h after inoculation): 0 germs/ml | Germs Number/ml after 14 d ([5]; 14 d after inoculation): 0 germs/ml | Germs Number/ml after Start ([5]; t=0): 2.7 · 10^6 germs/ml
